The target in this test is T1, MMP2 (Homo sapiens, UniProt P08253).
T1 sequence (P08253 110-660): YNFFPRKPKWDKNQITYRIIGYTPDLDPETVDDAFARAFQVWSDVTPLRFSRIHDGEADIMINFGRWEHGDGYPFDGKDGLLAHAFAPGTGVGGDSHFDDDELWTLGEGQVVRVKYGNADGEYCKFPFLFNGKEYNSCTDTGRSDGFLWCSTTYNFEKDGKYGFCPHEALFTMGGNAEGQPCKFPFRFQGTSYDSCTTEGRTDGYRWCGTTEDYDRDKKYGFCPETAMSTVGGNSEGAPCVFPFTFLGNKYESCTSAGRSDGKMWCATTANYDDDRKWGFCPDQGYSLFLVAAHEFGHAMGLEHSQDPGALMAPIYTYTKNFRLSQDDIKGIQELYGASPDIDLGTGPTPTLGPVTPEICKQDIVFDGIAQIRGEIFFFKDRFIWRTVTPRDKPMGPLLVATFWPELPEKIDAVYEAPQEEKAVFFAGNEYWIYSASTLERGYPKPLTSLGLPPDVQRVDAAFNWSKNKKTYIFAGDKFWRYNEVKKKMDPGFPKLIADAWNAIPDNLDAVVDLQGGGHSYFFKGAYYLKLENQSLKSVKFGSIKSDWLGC
The experiment in a line: Inhibitory effects on human MMP2 (Method 1), enzyme assay with MOCAc-Pro-Leu-Gly-Leu-A2pr(Dnp)-Ala-Arg-NH2 substrate, 96-well. The test is classed as biochemical. Here is the method:
In a reaction solution [50 mmol/L Tris-HCl (pH 7.5), 150 mmol/L NaCl, 10 mmol/L CaCl2, 0.05% Brij L23], 100 μg/mL human recombinant MMP2 enzyme and 1 mmol/L 4-Aminophenylmercuric acetate were mixed together, and reacted at 37° C. for 60 minutes. The human MMP2 activated through the reaction was poured into a 96-well microplate to reach a final concentration of 0.7 or 7 ng/mL.

[1] abbreviates: Test Example No. 1-1 (Method 1, 96-well microplate), read-out: Human MMP2, IC50.

pIC50: −log10 of the molar value. Like-named read-outs stand apart in the source and are kept apart here. *1 amine or outer side, *2 acyl side, *3 side chain or, on linkers, in order; H or OH if unused. Where a SMILES comes first, the peptide text is derived from it. Bridges are numbered along the chain shown (N, C = ends). [ ]: non-standard residue; d: D form. The star is where a group is joined. Phenylsulfonyl(4-anisamido) = COc1ccc(C(=O)Nc2ccc(S(=O)(=O)*)cc2)cc1; Benzoyl(4-(4-EtNHCO-PhO)) = CCNC(=O)c1ccc(Oc2ccc(C(=O)*)cc2)cc1; Benzoyl(4-O-C6H4-4-CONHMe) = CNC(=O)c1ccc(Oc2ccc(C(=O)*)cc2)cc1; Benzenesulfonyl(4-OPh) = O=S(=O)(c1ccc(Oc2ccccc2)cc1)*; X14 = CN(C)C(=O)c1ccc(C(=O)Nc2ccc(S(=O)(=O)*)cc2)cc1; X3 = O=C(Nc1ccc(S(=O)(=O)*)cc1)c1ccc(OC2CC2)cc1; Benzoyl(4-OPh) = O=C(c1ccc(Oc2ccccc2)cc1)*; X9 = O=C(NCCCO)c1ccc(Oc2ccc(C(=O)*)cc2)cc1; d(γGlu) = O=C(O)[C@@H](CCC(=O)[*:2])N[*:1]; d(βAsp) = O=C(O)[C@@H](CC(=O)[*:2])N[*:1]; X13 = Cc1ccc(C#Cc2ccc(S(=O)(=O)*)s2)cc1; NMeGABA = CN(CCCC(=O)[*:2])[*:1]; NMeI = CC[C@H](C)[C@H](NC)C(=O)O; NMeE = CN[C@@H](CCC(=O)O)C(=O)O; NMeN = CN[C@@H](CC(N)=O)C(=O)O; NMeM = CN[C@@H](CCSC)C(=O)O; β3hP = O=C(O)C[C@@H]1CCCN1; NMeA = CN[C@@H](C)C(=O)O; Dab = NCC[C@H](N)C(=O)O; Dap = NC[C@H](N)C(=O)O; Ahx = NCCCCCC(=O)O; Ava = NCCCCC(=O)O; GABA = NCCCC(=O)O; βAla = NCCC(=O)O; Sar = CNCC(=O)O

What is called pIC50 is the negative decadic logarithm of the IC50, by convention in mol/L. Consider `CCNC(=O)c1ccc(Oc2ccc(C(=O)NCCCCC(=O)N[C@@H](CCCNC(=N)N)C(=O)N[C@@H](CC(=O)O)C(=O)N[C@@H](CCN)C(=O)N[C@@H](CC(C)C)C(=O)N(C)[C@@H](CCC(=O)O)C(=O)N3CCC[C@H]3CC(N)=O)cc2)cc1` [Compound 196] ({Benzoyl(4-(4-EtNHCO-PhO))-Ava}-RD[Dab]L[NMeE][β3hP]-NH2; N-terminus assumed), for which the pIC50 under setting [1] is 8.77. Still for that read-out and setting: in the case of `CC[C@H](C)[C@@H](C(=O)N1CCC[C@H]1CC(N)=O)N(C)C(=O)[C@H](CC(C)C)NC(=O)[C@H](CCN)NC(=O)[C@H](CC(=O)O)NC(=O)[C@@H](NC(=O)CCCNC(=O)c1ccc(Oc2ccccc2)cc1)C(C)C` [Compound 146] ({Benzoyl(4-OPh)-GABA}-VD[Dab]L[NMeI][β3hP]-NH2; N-terminus assumed) it was 8.77; in that of `CC[C@H](C)[C@@H](C(=O)N1CCC[C@H]1C(N)=O)N(C)C(=O)[C@H](CC(C)C)NC(=O)[C@H](C)NC(=O)[C@H](CC(=O)O)NC(=O)CN(C)C(=O)CCCNC(=O)c1ccc(Oc2ccccc2)cc1` [Compound 115] ({Benzoyl(4-OPh)-GABA}-[Sar]DAL[NMeI]P-NH2; N-terminus assumed), 9.38. Same read-out and setting: the same measure for `CC[C@H](C)[C@@H](C(=O)N1CCC[C@H]1CC(N)=O)N(C)C(=O)[C@H](CC(C)C)NC(=O)[C@H](CCN)NC(=O)[C@H](CC(=O)O)NC(=O)[C@H](CCCNC(=N)N)NC(=O)CCCCCNC(=O)c1ccc(Oc2ccc(C(=O)NC)cc2)cc1` [Compound 191] ({Benzoyl(4-O-C6H4-4-CONHMe)-Ahx}-RD[Dab]L[NMeI][β3hP]-NH2; N-terminus assumed): 8.57. The same measure, in the same setting: the same measure for `CC(C)C[C@H](NC(=O)[C@H](CN)NC(=O)C[C@@H](NS(=O)(=O)c1ccc(NC(=O)c2ccc(C(=O)N(C)C)cc2)cc1)C(=O)O)C(=O)N(C)[C@@H](CCC(=O)O)C(=O)N1CCC[C@H]1CC(N)=O` [Compound 679] ({X14-d(βAsp)}-[Dap]L[NMeE][β3hP]-NH2; N-terminus assumed): 8.82.

For the compound `CC[C@H](C)[C@@H](C(=O)N[C@@H](CC(=O)O)C(=O)N[C@@H](C)C(=O)N[C@@H](CC(C)C)C(=O)N(C)[C@H](C(=O)N1CCC[C@H]1C(N)=O)[C@@H](C)CC)N(C)C(=O)CCCNC(=O)c1ccc(Oc2ccccc2)cc1` [Compound 121] ({Benzoyl(4-OPh)-GABA}-[NMeI]DAL[NMeI]P-NH2; N-terminus assumed), the pIC50 under setting [1] was 9.72. Regarding `CNC(=O)c1ccc(Oc2ccc(C(=O)NCCCC(=O)N[C@@H](CC(N)=O)C(=O)N[C@@H](CC(=O)O)C(=O)N[C@@H](C)C(=O)N[C@@H](CC(C)C)C(=O)N[C@@H](CCSC)C(=O)N3CCC[C@H]3C(N)=O)cc2)cc1` [Compound 177, N^2-(4-{4-[4-(methylcarbamoyl)phenoxy]benzamido}butanoyl)-L-asparaginyl-L-α-aspartyl-L-alanyl-L-leucyl-L-methionyl-L-prolinamide] ({Benzoyl(4-O-C6H4-4-CONHMe)-GABA}-NDALMP-NH2), the negative logarithm of the IC50 (pIC50) under setting [1] was 9.68.

`CC[C@H](C)[C@@H](C(=O)N1CCC[C@H]1C(N)=O)N(C)C(=O)[C@H](CC(C)C)NC(=O)[C@H](C)NC(=O)[C@H](CC(=O)O)NC(=O)[C@H](C)N(C)C(=O)CCCN(C)C(=O)c1ccc(Oc2ccccc2)cc1` [Compound 100] ({Benzoyl(4-OPh)}-[NMeGABA][NMeA]DAL[NMeI]P-NH2; N-terminus assumed): under setting [1], the pIC50 is 8.92.

For the compound `CSCC[C@@H](C(=O)N1CCC[C@H]1C(N)=O)N(C)C(=O)[C@H](CC(C)C)NC(=O)[C@H](C)NC(=O)[C@H](CC(=O)O)NC(=O)[C@H](CC(N)=O)NC(=O)CCNS(=O)(=O)c1ccc(C#Cc2ccc(C)cc2)s1` [Compound 587, N-{5-[(4-methylphenyl)ethynyl]thiophene-2-sulfonyl}-β-alanyl-L-asparaginyl-L-α-aspartyl-L-alanyl-L-leucyl-N-methyl-L-methionyl-L-prolinamide] ({X13-βAla}-NDAL[NMeM]P-NH2), the pIC50 under setting [1] is 9.72. The same measure, in the same setting: in the case of `CC(C)C[C@H](NC(=O)[C@H](CCN)NC(=O)[C@H](CC(=O)O)NC(=O)[C@H](CC(N)=O)NC(=O)CCCCNC(=O)c1ccc(Oc2ccc(C(=O)NCCCO)cc2)cc1)C(=O)N(C)[C@@H](CCC(=O)O)C(=O)N1CCC[C@H]1CC(N)=O` [Compound 182] ({X9-Ava}-ND[Dab]L[NMeE][β3hP]-NH2; N-terminus assumed) it was 9.31.

Turning to `CC(C)C[C@H](NC(=O)[C@H](CCN)NC(=O)[C@H](CC(=O)O)NC(=O)[C@H](CC(N)=O)NC(=O)CCCNC(=O)c1ccc(Oc2ccccc2)cc1)C(=O)N(C)[C@@H](CCC(=O)O)C(=O)N1CCC[C@H]1C(N)=O` [Compound 109] ({Benzoyl(4-OPh)-GABA}-ND[Dab]L[NMeE]P-NH2; N-terminus assumed), under setting [1], the negative-log IC50 (pIC50) was 9.15. Same read-out and setting: in the case of `CC(C)C[C@H](NC(=O)[C@H](CCN)NC(=O)[C@H](CC(=O)O)NC(=O)[C@H](CCC(=O)O)NC(=O)CCCNC(=O)c1ccc(Oc2ccccc2)cc1)C(=O)N(C)[C@@H](CCC(=O)O)C(=O)N1CCC[C@H]1CC(N)=O` [Compound 144] ({Benzoyl(4-OPh)-GABA}-ED[Dab]L[NMeE][β3hP]-NH2; N-terminus assumed) it was 9.59; in that of `CC(C)C[C@H](NC(=O)[C@H](CCN)NC(=O)[C@H](CC(=O)O)NC(=O)[C@H](CC(N)=O)N(C)C(=O)CCCNC(=O)c1ccc(Oc2ccccc2)cc1)C(=O)N(C)[C@@H](CCC(=O)O)C(=O)N1CCC[C@H]1CC(N)=O` [Compound 112] ({Benzoyl(4-OPh)-GABA}-[NMeN]D[Dab]L[NMeE][β3hP]-NH2; N-terminus assumed), 9.26.

For the compound `CC[C@H](C)[C@@H](C(=O)N1CCC[C@H]1CC(N)=O)N(C)C(=O)[C@H](CC(C)C)NC(=O)[C@H](CCN)NC(=O)C[C@@H](NS(=O)(=O)c1ccc(NC(=O)c2ccc(OC)cc2)cc1)C(=O)O` [Compound 694] ({Phenylsulfonyl(4-anisamido)-d(βAsp)}-[Dab]L[NMeI][β3hP]-NH2; N-terminus assumed), the pIC50 under setting [1] is 10.03. The same measure, in the same setting: the same measure for `CNC(=O)c1ccc(Oc2ccc(C(=O)NCCCCC(=O)N[C@@H](CCCNC(=N)N)C(=O)N[C@@H](CC(=O)O)C(=O)N[C@@H](CCN)C(=O)N[C@@H](CC(C)C)C(=O)N(C)[C@@H](CCC(=O)O)C(=O)N3CCC[C@H]3CC(N)=O)cc2)cc1` [Compound 188] ({Benzoyl(4-O-C6H4-4-CONHMe)-Ava}-RD[Dab]L[NMeE][β3hP]-NH2; N-terminus assumed): 9.09; for `CC[C@H](C)[C@@H](C(=O)N1CCC[C@H]1CC(N)=O)N(C)C(=O)[C@H](CC(C)C)NC(=O)[C@H](CCN)NC(=O)[C@H](CC(=O)O)NC(=O)[C@H](NC(=O)CCCCNS(=O)(=O)c1ccc(Oc2ccccc2)cc1)[C@H](C)O` [Compound 85] ({Benzenesulfonyl(4-OPh)-Ava}-[dT]D[Dab]L[NMeI][β3hP]-NH2; N-terminus assumed): 9.31. On the same count and under the same terms, the same measure for `CC(C)C[C@H](NC(=O)[C@H](CCN)NC(=O)[C@H](CC(=O)O)NC(=O)[C@@H](NC(=O)CCCNC(=O)c1ccc(Oc2ccccc2)cc1)C(C)C)C(=O)N(C)[C@@H](CCC(=O)O)C(=O)N1CCC[C@H]1CC(N)=O` [Compound 143] ({Benzoyl(4-OPh)-GABA}-VD[Dab]L[NMeE][β3hP]-NH2; N-terminus assumed): 8.59. As for `CC[C@H](C)[C@@H](C(=O)N1CCC[C@H]1CC(=O)O)N(C)C(=O)[C@@H]1CCCCNC(=O)CNC(=O)CC[C@H](NC(=O)CCCNS(=O)(=O)c2ccc(Oc3ccccc3)cc2)C(=O)N[C@@H](CC(=O)O)C(=O)N[C@@H](C)C(=O)N1` [Compound 891] ({Benzenesulfonyl(4-OPh)-GABA}-EDAK[NMeI][β3hP]-OH; linker 1-4 via G), the negative-log IC50 (pIC50) (Test Example No. 1-1 (Method 1, 96-well), read-out: Human MMP2, IC50) is 8.80. As to `CC(C)C[C@H](NC(=O)[C@H](CCN)NC(=O)CC[C@@H](NS(=O)(=O)c1ccc(NC(=O)c2ccc(OC3CC3)cc2)cc1)C(=O)O)C(=O)N(C)[C@@H](CCC(=O)O)C(=O)N1CCC[C@H]1CC(N)=O` [Compound 703] ({X3-d(γGlu)}-[Dab]L[NMeE][β3hP]-NH2; N-terminus assumed), under setting [1], the negative-log IC50 (pIC50) is 9.48. For `CC[C@H](C)[C@@H](C(=O)N1CCC[C@H]1CC(N)=O)N(C)C(=O)[C@H](CC(C)C)NC(=O)[C@H](CCN)NC(=O)[C@H](CC(=O)O)NC(=O)[C@H](CC(N)=O)NC(=O)CCCNC(=O)c1ccc(Oc2ccccc2)cc1` [Compound 106], the negative logarithm of the IC50 (pIC50) is 9.80. Turning to `CC[C@H](C)[C@@H](C(=O)N1CCC[C@H]1C(N)=O)N(C)C(=O)[C@H](CC(C)C)NC(=O)[C@H](C)NC(=O)[C@H](CC(=O)O)NC(=O)[C@H](CC(N)=O)N(C)C(=O)CCCNC(=O)c1ccc(Oc2ccccc2)cc1` [Compound 94] ({Benzoyl(4-OPh)-GABA}-[NMeN]DAL[NMeI]P-NH2; N-terminus assumed), the pIC50 under setting [1] is 10.06. Same read-out and setting: in the case of `CCNC(=O)c1ccc(Oc2ccc(C(=O)NCCCCC(=O)N[C@@H](CCCCN)C(=O)N[C@@H](CC(=O)O)C(=O)N[C@@H](CCN)C(=O)N[C@@H](CC(C)C)C(=O)N(C)[C@@H](CCC(=O)O)C(=O)N3CCC[C@H]3CC(N)=O)cc2)cc1` [Compound 192] ({Benzoyl(4-(4-EtNHCO-PhO))-Ava}-KD[Dab]L[NMeE][β3hP]-NH2; N-terminus assumed) it was 8.72.

(Values after US20240199692A1 (priority 2019, published 2024).)
